Measurements as given in patent US11066396B2 (priority 2016, dated 2021).

How the values were obtained:
HDAC1 = HDAC1 (Homo sapiens (Human), UniProt Q13547); conditions: read-out: HDAC1 IC50
HDAC8 = HDAC8 (Homo sapiens (Human), UniProt Q9BY41); conditions: read-out: HDAC8 IC50
HDAC5 = HDAC5 (Homo sapiens (Human), UniProt Q9UQL6); conditions: read-out: HDAC5 IC50
Chain of HDAC5 (Q9UQL6 656-1122): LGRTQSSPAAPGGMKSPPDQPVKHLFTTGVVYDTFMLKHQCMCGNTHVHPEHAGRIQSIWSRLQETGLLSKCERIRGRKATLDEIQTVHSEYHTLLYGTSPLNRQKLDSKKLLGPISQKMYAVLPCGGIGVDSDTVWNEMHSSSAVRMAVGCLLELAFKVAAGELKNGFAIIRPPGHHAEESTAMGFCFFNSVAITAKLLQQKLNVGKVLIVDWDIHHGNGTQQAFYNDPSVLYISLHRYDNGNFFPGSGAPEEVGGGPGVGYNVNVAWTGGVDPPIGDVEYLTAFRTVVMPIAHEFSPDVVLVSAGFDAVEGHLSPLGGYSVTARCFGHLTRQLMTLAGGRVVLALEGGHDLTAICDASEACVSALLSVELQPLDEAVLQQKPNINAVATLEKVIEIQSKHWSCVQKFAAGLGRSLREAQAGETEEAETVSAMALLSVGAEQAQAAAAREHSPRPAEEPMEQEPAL

Chain of HDAC1 (Q13547 whole entry): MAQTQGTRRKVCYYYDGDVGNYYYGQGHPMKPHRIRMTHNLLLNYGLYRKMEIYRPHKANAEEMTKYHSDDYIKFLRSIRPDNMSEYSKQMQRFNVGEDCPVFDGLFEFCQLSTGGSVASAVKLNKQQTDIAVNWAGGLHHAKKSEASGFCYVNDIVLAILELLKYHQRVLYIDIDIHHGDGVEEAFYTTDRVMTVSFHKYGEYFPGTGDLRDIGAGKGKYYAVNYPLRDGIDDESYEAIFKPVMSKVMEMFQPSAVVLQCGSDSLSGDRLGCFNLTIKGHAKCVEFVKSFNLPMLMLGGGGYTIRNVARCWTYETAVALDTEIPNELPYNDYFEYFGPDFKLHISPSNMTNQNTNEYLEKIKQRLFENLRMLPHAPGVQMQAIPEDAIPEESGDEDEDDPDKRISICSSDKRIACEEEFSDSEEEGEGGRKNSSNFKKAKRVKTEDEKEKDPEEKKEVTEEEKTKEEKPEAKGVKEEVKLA
Chain of HDAC8 (Q9BY41 whole entry): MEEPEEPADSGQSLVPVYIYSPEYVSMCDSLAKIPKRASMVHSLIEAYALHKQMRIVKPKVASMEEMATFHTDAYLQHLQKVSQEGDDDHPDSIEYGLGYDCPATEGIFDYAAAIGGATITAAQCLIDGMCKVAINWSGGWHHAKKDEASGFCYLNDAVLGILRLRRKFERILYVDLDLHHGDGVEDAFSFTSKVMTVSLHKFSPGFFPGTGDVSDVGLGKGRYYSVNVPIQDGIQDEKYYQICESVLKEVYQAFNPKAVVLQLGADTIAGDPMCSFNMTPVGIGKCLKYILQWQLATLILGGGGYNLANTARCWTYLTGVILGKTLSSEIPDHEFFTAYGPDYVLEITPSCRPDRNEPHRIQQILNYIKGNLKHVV

SMILES	IC50 (HDAC1) [nM]	IC50 (HDAC8) [nM]	IC50 (HDAC5) [nM]
Fc1c(-c2noc(C(F)(F)F)n2)ccnc1OCc1nc(C2CC2)no1 [Example 187, 3-Cyclopropyl-5-(((3-fluoro-4-(5-(trifluoromethyl)-1,2,4-oxadiazol-3-yl)pyridin-2-yl)oxy)methyl)-1,2,4-oxadiazole]	1500	1500	220
CCCC(=O)NC(Cc1ccc(-c2noc(C(F)(F)F)n2)cn1)c1cccc(C(F)(F)F)c1 (racemic) [Example 479, N-(2-{5-[5-(trifluoromethyl)-1,2,4-oxadiazol-3-yl]pyridin-2-yl}-1-[3-(trifluoromethyl)phenyl]ethyl)butanamide]	610	45000	440
Cc1nc2ccc(F)cc2n1Cc1ccc(-c2noc(C(F)(F)F)n2)cn1 [Example 465, 6-fluoro-2-methyl-1-({5-[5-(trifluoromethyl)-1,2,4-oxadiazol-3-yl]pyridin-2-yl}methyl)-1H-benzimidazole]	720	5600	36
O=C1OC[C@@H](c2ccccc2)N1c1cc(F)c(-c2noc(C(F)(F)F)n2)cc1F [Example 16, (R)-3-(2,5-Difluoro-4-(5-(trifluoromethyl)-1,2,4-oxadiazol-3-yl)phenyl)-4-phenyloxazolidin-2-one]	1000	6000	19
Fc1cc(COc2cncnc2)ccc1-c1noc(C(F)(F)F)n1 [Example 236, 5-({3-fluoro-4-[5-(trifluoromethyl)-1,2,4-oxadiazol-3-yl]phenyl}methoxy)pyrimidine]	3100	2100	42
Cc1cc(C)nc(COc2nccc(-c3noc(C(F)(F)F)n3)c2Cl)n1 [Example 186, 3-(3-Chloro-2-((4,6-dimethylpyrimidin-2-yl)methoxy)pyridin-4-yl)-5-(trifluoromethyl)-1,2,4-oxadiazole]	8100	3900	850
O=C1CCC(c2ccccc2F)N1c1ccc(-c2noc(C(F)(F)F)n2)cc1F (racemic) [Example 118, 1-(2-fluoro-4-(5-(trifluoromethyl)-1,2,4-oxadiazol-3-yl)phenyl)-5-(2-fluorophenyl)pyrrolidin-2-one]	570	2500	130
Cn1cnc2cc(COc3nccc(-c4noc(C(F)(F)F)n4)c3Cl)ccc21 [Example 255, 5-[({3-chloro-4-[5-(trifluoromethyl)-1,2,4-oxadiazol-3-yl]pyridin-2-yl}oxy)methyl]-1-methyl-1H-benzimidazole]	1700	1600	380
O=C1CCC(c2ccccc2)N1c1ccc(-c2noc(C(F)(F)F)n2)c(F)c1 (stereo not drawn) [Example 43, 1-(3-fluoro-4-(5-(trifluoromethyl)-1,2,4-oxadiazol-3-yl)phenyl)-5-phenylpyrrolidin-2-one]	1900	3600	74
CC(C)C(=O)NC(Cc1ccc(-c2noc(C(F)(F)F)n2)cn1)c1cccc(C(F)(F)F)c1 (racemic) [Example 478, 2-methyl-N-(2-{5-[5-(trifluoromethyl)-1,2,4-oxadiazol-3-yl]pyridin-2-yl}-1-[3-(trifluoromethyl)phenyl]ethyl)propanamide]	680	45000	500
O=C(NC(Cc1ccc(-c2noc(C(F)(F)F)n2)cn1)c1cccc(C(F)(F)F)c1)c1cccnc1 (racemic) [Example 487, N-(2-{5-[5-(trifluoromethyl)-1,2,4-oxadiazol-3-yl]pyridin-2-yl}-1-[3-(trifluoromethyl)phenyl]ethyl)pyridine-3-carboxamide]	670	5300	380
O=C(C1CCS(=O)(=O)CC1)N(Cc1ccc(-c2noc(C(F)(F)F)n2)c(F)c1)c1cccc(C(F)(F)F)c1 [Example 489, N-({3-fluoro-4-[5-(trifluoromethyl)-1,2,4-oxadiazol-3-yl]phenyl}methyl)-1,1-dioxo-N-[3-(trifluoromethyl)phenyl]-llambda~6~-thiane-4-carboxamide]	950	6900	760
O=C(C1CCOCC1)N(Cc1ccc(-c2noc(C(F)(F)F)n2)cn1)c1cccc(F)c1 [Example 60, N-(3-fluorophenyl)-N-((5-(5-(trifluoromethyl)-1,2,4-oxadiazol-3-yl)pyridin-2-yl)methyl)tetrahydro-2H-pyran-4-carboxamide]	230	2100	650
Fc1cc(COc2cccc3[nH]nnc23)ccc1-c1noc(C(F)(F)F)n1 [Example 227, 4-({3-fluoro-4-[5-(trifluoromethyl)-1,2,4-oxadiazol-3-yl]phenyl}methoxy)-1H-benzotriazole]	1500	730	65
CC(=O)NC(Cc1ccc(-c2noc(C(F)(F)F)n2)cn1)c1cccc(C(F)(F)F)c1 (stereo not drawn) [Example 177, N-(2-(5-(5-(Trifluoromethyl)-1,2,4-oxadiazol-3-yl)pyridin-2-yl)-1-(3-(trifluoromethyl)phenyl)ethyl)acetamide]	530	4500	420
Fc1cc(CNc2ccc3ccncc3c2)ccc1-c1noc(C(F)(F)F)n1 [Example 254, N-({3-fluoro-4-[5-(trifluoromethyl)-1,2,4-oxadiazol-3-yl]phenyl}methyl)isoquinolin-7-amine]	1600	45000	140
O=C(C1CCS(=O)(=O)CC1)N(Cc1ccc(-c2noc(C(F)(F)F)n2)cc1F)c1cccc(C(F)(F)F)c1 [Example 490, N-({2-fluoro-4-[5-(trifluoromethyl)-1,2,4-oxadiazol-3-yl]phenyl}methyl)-1,1-dioxo-N-[3-(trifluoromethyl)phenyl]-llambda~6~-thiane-4-carboxamide]	500	3400	520
O=C1CCC(c2ccccc2)N1c1cc(F)c(-c2noc(C(F)(F)F)n2)cc1F (stereo not drawn) [Example 41, 1-(2,5-difluoro-4-(5-(trifluoromethyl)-1,2,4-oxadiazol-3-yl)phenyl)-5-phenylpyrrolidin-2-one]	610	6000	19
Nc1cccnc1COCc1ccc(-c2noc(C(F)(F)F)n2)c(F)c1 [Example 252, 2-[({3-fluoro-4-[5-(trifluoromethyl)-1,2,4-oxadiazol-3-yl]phenyl}methoxy)methyl]pyridin-3-amine]	2600	4500	120
CS(=O)(=O)NC(Cc1ccc(-c2noc(C(F)(F)F)n2)cn1)c1cccc(C(F)(F)F)c1 (stereo not drawn) [Example 178, N-(2-(5-(5-(Trifluoromethyl)-1,2,4-oxadiazol-3-yl)pyridin-2-yl)-1-(3-(trifluoromethyl)phenyl)ethyl)methanesulfonamide]	410	3700	320
Cc1nc(OCc2ccc(-c3noc(C(F)(F)F)n3)c(F)c2)c2cnn(C)c2n1 [Example 248, 4-({3-fluoro-4-[5-(trifluoromethyl)-1,2,4-oxadiazol-3-yl]phenyl}methoxy)-1,6-dimethyl-1H-pyrazolo[3,4-d]pyrimidine]	2600	2600	59
